Measured values: patent US8435962B2, “Triacetyl-3-hydroxyphenyladenosine and its use for regulating blood fat” (Institute of Mataria Medica, Chinese Academy of Medical …, priority 2009, dated 2013)

Key:
hyperlipidemia hamsters [1] = test: Effects on hepatic SOD activity and MDA concentration in hyperlipidemic hamsters' livers; format: in vivo, hamster; conditions: for hepatic MDA / hepatic SOD: 4 weeks
Protocol: (§2) After a week of accommodation, except control group (n=12) all the hamsters (n=72) were fed with high-fat laboratory chow.
(§3) After four weeks high-fat diet modeling, rats were treated with different drugs by intragastric administration. Control animals received an equal volume of vehicle.
(§4) At the end of 4 weeks drug treatment, animals were fasted for 12 hours (10 of each group). The next day, they were anesthetized by intraperitoneal injection of pentobarbitale sodium (45 mg/kg). Blood samples were collected from the abdominal aorta within 15 min, and plasma was separated. Plasma TC, TG, HDL-C, LDL-C, ALT, FFA were detected. Liver and the retroperitoneal fat were separated and weighed, the liver and fat index were calculated. Liver SOD and MDA were detected by kit after homogenized. The left hamsters (10 each group) drug treatment was withdrawn while high-fat diet modeling continued. Two weeks later, blood sample was collected from the orbit and serum TC and TG were detected.

hyperlipidemia hamsters [2] = test: Effects on serum ALT activity in hyperlipidemic hamsters; conditions: for ALT: hyperlipidemic hamsters, 4 weeks
Protocol: as §2, §3, §4

hyperlipidemia rats [3] = test: Effects on hepatic SOD activity and MDA content of hyperlipidemia rats; format: in vivo, rat; conditions: for hepatic MDA / hepatic SOD: 4 weeks
From the text: (§1) Control animals received an equal volume of vehicle.

hyperlipidemia hamsters [4] = test: Effect on retroperitoneal fat of hyperlipidemia hamsters; format: in vivo, hamster
Protocol: as §2, §3, §4

hyperlipidemia rats [5] = test: Serum lipid of hyperlipidemia rats after withdrawal from drugs for 2 weeks; format: in vivo, rat; conditions: for TC / TG: rats, 2 weeks after drug withdrawal, high-fat diet continued
Protocol: (§5) After a week of accommodation, except control group (20 rat), all the rats (120 rats) were fed with high-fat laboratory chow.
as §3
(§6) At the end of 4 weeks drug treatment, animals were fasted for 12 hours before anesthetizing by intraperitoneal injection of pentobarbitale sodium (45 mg/kg), and anticoagulated by 100 U/kg heparin through caudal vein injection. Blood samples were collected from the abdominal aorta within 15 min, and serum was separated. Serum TC, TG, HDL-C, LDL-C, ALT, FFA were detected. Liver and the fat pad behind the belly were separated and weighed, the liver and retroperitoneal fat were weighed too. […] The left rats (10 rats each group) drug treatment was withdrawn while high-fat diet modeling continued. Two weeks later, blood sample was collected from the orbit, and serum TC, TG were detected.

hyperlipidemia rats [6] = test: Effects on liver weight and serum ALT activity of hyperlipidemia rats; conditions: 4 weeks
Protocol: as §5, §3, §6

hyperlipidemia hamsters [7] = test: Serum lipid level in hyperlipidemic hamsters after drug discontinuance (2 weeks); format: in vivo, hamster; conditions: for TC / TG / serum lipid levels after drug discontinuance: hamsters; for TC / TG: 2 weeks after drug discontinuance, high-fat diet continued; for serum lipid levels after drug discontinuance: vs model group, in words
Protocol: as §2, §3, §4

hyperlipidemia rats [8] = test: Effects on plasma lipid in hyperlipidemia rats (high-fat diet); format: in vivo, rat; conditions: for FFA / HDL-C / HDL/LDL / LDL-C / TC / TG: 4 weeks;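 for all read-outs here: rats kept on high-fat chow for 4 weeks before dosing, serum taken from abdominal aorta after a 12 h fast at end of treatment, controls given vehicle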
Protocol: as §5, §3, §6

hyperlipidemia hamsters [9] = test: Effects on plasma lipid in hyperlipidemia hamsters (high-fat diet); format: in vivo, hamster; conditions: for HDL-C / HDL/LDL / LDL-C / TC / TG: 4 weeks;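 for all read-outs here: hamsters given high-fat chow for four weeks, then dosed by gavage, plasma lipids measured in abdominal aortic blood after a 12 h fast, compared with vehicle-treated controls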
Protocol: as §2, §3, §4

hyperlipidemia rats [10] = test: Effects on retroperitoneal fat weight of hyperlipidemic rats; format: in vivo, rat; conditions: for Fat weight (retroperitoneal fat): hyperlipidemic rats, 4 weeks
From the text: as §1

[11] = hyperlipidemia rats, 3 mg/kg intragastric
[12] = hyperlipidemia rats, 6 mg/kg intragastric
[13] = hyperlipidemia rats, 12 mg/kg intragastric

SMILES: CC(=O)OC[C@H]1O[C@@H](n2cnc3c(Nc4cccc(O)c4)ncnc32)[C@H](OC(C)=O)[C@@H]1OC(C)=O [WS070117, O^2′,O^3′,O^5′-tri-acetyl-N^6-(3-hydroxylphenyl)adenosine]
- hepatic MDA (hyperlipidemia hamsters [1]; 3 mg/kg intragastric): 4.8 ± 1.2 nmol/mg protein
- hepatic SOD (hyperlipidemia hamsters [1]; 3 mg/kg intragastric): 84.0 ± 19.6 U/g pr
- hepatic MDA (hyperlipidemia hamsters [1]; 6 mg/kg intragastric): 4.23 ± 0.72 nmol/mg protein
- hepatic SOD (hyperlipidemia hamsters [1]; 6 mg/kg intragastric): 95.1 ± 31.6 U/g pr
- hepatic MDA (hyperlipidemia hamsters [1]; 12 mg/kg intragastric): 4.6 ± 0.92 nmol/mg protein
- hepatic SOD (hyperlipidemia hamsters [1]; 12 mg/kg intragastric): 91.9 ± 22.9 U/g pr
- MDA concentration (hyperlipidemia hamsters [1]; in words): lower than the model group
- ALT (hyperlipidemia hamsters [2]; 3 mg/kg intragastric): 100.7 ± 38.2 U/L
- ALT (hyperlipidemia hamsters [2]; 6 mg/kg intragastric): 91.7 ± 23.1 U/L
- ALT (hyperlipidemia hamsters [2]; 12 mg/kg intragastric): 95.2 ± 34.8 U/L
- serum ALT activity (hyperlipidemia hamsters [2]; text of hamster Example 3 says 'hyperlipidemic rats', in words): slightly reduced
- hepatic MDA (hyperlipidemia rats [3]; 3 mg/kg intragastric): 8.51 ± 3.32 nmol/mg protein
- hepatic SOD (hyperlipidemia rats [3]; 3 mg/kg intragastric): 93.3 ± 37.5 U/g pr
- hepatic MDA (hyperlipidemia rats [3]; 6 mg/kg intragastric): 8.71 ± 2.83 nmol/mg protein
- hepatic SOD (hyperlipidemia rats [3]; 6 mg/kg intragastric): 102.0 ± 24.4 U/g pr
- hepatic MDA (hyperlipidemia rats [3]; 12 mg/kg intragastric): 8.29 ± 2.78 nmol/mg protein
- hepatic SOD (hyperlipidemia rats [3]; 12 mg/kg intragastric): 107.7 ± 26.4 U/g pr
- hepatic SOD activity (hyperlipidemia rats [3]; after administration, in words): significantly increased
- hepatic MDA content (hyperlipidemia rats [3]; in words): decreased
- retroperitoneal fat (hyperlipidemia hamsters [4]; 3 mg/kg intragastric, 4 weeks): 1.26 ± 0.34 g/100g
- retroperitoneal fat (hyperlipidemia hamsters [4]; 6 mg/kg intragastric, 4 weeks): 1.23 ± 0.23 g/100g
- retroperitoneal fat (hyperlipidemia hamsters [4]; 12 mg/kg intragastric, 4 weeks): 1.31 ± 0.27 g/100g
- retroperitoneal fat (hyperlipidemia hamsters [4]; after treatment, in words): decreased
- time blood-fat regulatory effect is sustained after withdrawal (hyperlipidemia rats [5]; hyperlipidemia rats): more than 2 weeks
- serum TC content after withdrawal from drugs for 2 weeks (hyperlipidemia rats [5]; hyperlipidemia rats, in words): significantly lower than that of the model group
- TC (hyperlipidemia rats [5]; 3 mg/kg): 2.12 ± 0.45 mmol/L
- TG (hyperlipidemia rats [5]; 3 mg/kg): 1.04 ± 0.19 mmol/L
- TC (hyperlipidemia rats [5]; 6 mg/kg): 2.02 ± 0.43 mmol/L
- TG (hyperlipidemia rats [5]; 6 mg/kg): 1.03 ± 0.22 mmol/L
- TC (hyperlipidemia rats [5]; 12 mg/kg): 2.15 ± 0.32 mmol/L
- TG (hyperlipidemia rats [5]; 12 mg/kg): 1.01 ± 0.38 mmol/L
- Liver weight (hyperlipidemia rats [6]; 'rat' in hamster Table 9, 3 mg/kg intragastric): 3.22 ± 0.48 g/100 g body weight
- Liver weight (hyperlipidemia rats [6]; 'rat' in hamster Table 9, 6 mg/kg intragastric): 3.21 ± 0.38 g/100 g body weight
- Liver weight (hyperlipidemia rats [6]; 'rat' in hamster Table 9, 12 mg/kg intragastric): 3.26 ± 0.54 g/100 g body weight
- Liver weight (hyperlipidemia rats [6]; [11]): 3.22 ± 0.48 g/100 g body weight
- serum ALT (hyperlipidemia rats [6]; [11]): 42.9 ± 13.7 U/L
- Liver weight (hyperlipidemia rats [6]; [12]): 3.21 ± 0.38 g/100 g body weight
- serum ALT (hyperlipidemia rats [6]; [12]): 41.6 ± 19.8 U/L
- Liver weight (hyperlipidemia rats [6]; [13]): 3.26 ± 0.54 g/100 g body weight
- serum ALT (hyperlipidemia rats [6]; [13]): 42.0 ± 16.6 U/L
- TC (hyperlipidemia hamsters [7]; 3 mg/kg): 5.34 ± 1.32 mmol/L
- TG (hyperlipidemia hamsters [7]; 3 mg/kg): 4.36 ± 1.27 mmol/L
- serum lipid levels after drug discontinuance (hyperlipidemia hamsters [7]; 6 mg/kg): significantly lower
- TC (hyperlipidemia hamsters [7]; 6 mg/kg): 5.02 ± 1.35 mmol/L
- TG (hyperlipidemia hamsters [7]; 6 mg/kg): 4.16 ± 0.77 mmol/L
- serum lipid levels after drug discontinuance (hyperlipidemia hamsters [7]; 12 mg/kg): significantly lower
- TC (hyperlipidemia hamsters [7]; 12 mg/kg): 4.61 ± 1.11 mmol/L
- TG (hyperlipidemia hamsters [7]; 12 mg/kg): 3.82 ± 0.66 mmol/L
- time hypolipidemic effect lasted after drug discontinuance (hyperlipidemia hamsters [7]; hyperlipidemic hamsters): ≥ 2 weeks
- FFA (hyperlipidemia rats [8]; 3 mg/kg intragastric): 1.04 ± 0.24 mmol/L
- HDL-C (hyperlipidemia rats [8]; 3 mg/kg intragastric): 0.58 ± 0.10 mmol/L
- HDL/LDL (hyperlipidemia rats [8]; 3 mg/kg intragastric): 0.43 ± 0.12
- LDL-C (hyperlipidemia rats [8]; 3 mg/kg intragastric): 1.38 ± 0.27 mmol/L
- TC (hyperlipidemia rats [8]; 3 mg/kg intragastric): 2.39 ± 0.34 mmol/L
- TG (hyperlipidemia rats [8]; 3 mg/kg intragastric): 0.67 ± 0.15 mmol/L
- FFA (hyperlipidemia rats [8]; 6 mg/kg intragastric): 0.94 ± 0.17 mmol/L
- HDL-C (hyperlipidemia rats [8]; 6 mg/kg intragastric): 0.59 ± 0.18 mmol/L
- HDL/LDL (hyperlipidemia rats [8]; 6 mg/kg intragastric): 0.52 ± 0.19
- LDL-C (hyperlipidemia rats [8]; 6 mg/kg intragastric): 1.19 ± 0.18 mmol/L
- TC (hyperlipidemia rats [8]; 6 mg/kg intragastric): 2.11 ± 0.24 mmol/L
- TG (hyperlipidemia rats [8]; 6 mg/kg intragastric): 0.52 ± 0.13 mmol/L
- effect on rats FFA (hyperlipidemia rats [8]; 6 mg/kg, in words): significant effect
- FFA (hyperlipidemia rats [8]; 12 mg/kg intragastric): 0.97 ± 0.27 mmol/L
- HDL-C (hyperlipidemia rats [8]; 12 mg/kg intragastric): 0.56 ± 0.10 mmol/L
- HDL/LDL (hyperlipidemia rats [8]; 12 mg/kg intragastric): 0.47 ± 0.13
- LDL-C (hyperlipidemia rats [8]; 12 mg/kg intragastric): 1.24 ± 0.20 mmol/L
- TC (hyperlipidemia rats [8]; 12 mg/kg intragastric): 2.30 ± 0.29 mmol/L
- TG (hyperlipidemia rats [8]; 12 mg/kg intragastric): 0.55 ± 0.19 mmol/L
- HDL-C/LDL-C (hyperlipidemia rats [8]; after treatment, in words): increased
- blood TC, TG and LDL-C (hyperlipidemia rats [8]; after treatment, in words): decreased
- HDL-C (hyperlipidemia hamsters [9]; 3 mg/kg intragastric): 1.24 ± 0.26 mmol/L
- HDL/LDL (hyperlipidemia hamsters [9]; 3 mg/kg intragastric): 0.37 ± 0.11
- LDL-C (hyperlipidemia hamsters [9]; 3 mg/kg intragastric): 3.68 ± 1.44 mmol/L
- TC (hyperlipidemia hamsters [9]; 3 mg/kg intragastric): 4.35 ± 0.93 mmol/L
- TG (hyperlipidemia hamsters [9]; 3 mg/kg intragastric): 4.26 ± 1.52 mmol/L
- HDL-C (hyperlipidemia hamsters [9]; 6 mg/kg intragastric): 1.14 ± 0.18 mmol/L
- HDL/LDL (hyperlipidemia hamsters [9]; 6 mg/kg intragastric): 0.40 ± 0.09
- LDL-C (hyperlipidemia hamsters [9]; 6 mg/kg intragastric): 3.00 ± 0.90 mmol/L
- TC (hyperlipidemia hamsters [9]; 6 mg/kg intragastric): 4.19 ± 1.14 mmol/L
- TG (hyperlipidemia hamsters [9]; 6 mg/kg intragastric): 3.67 ± 1.46 mmol/L
- HDL-C (hyperlipidemia hamsters [9]; 12 mg/kg intragastric): 1.24 ± 0.40 mmol/L
- HDL/LDL (hyperlipidemia hamsters [9]; 12 mg/kg intragastric): 0.59 ± 0.31
- LDL-C (hyperlipidemia hamsters [9]; 12 mg/kg intragastric): 2.26 ± 0.47 mmol/L
- TC (hyperlipidemia hamsters [9]; 12 mg/kg intragastric): 3.60 ± 1.84 mmol/L
- TG (hyperlipidemia hamsters [9]; 12 mg/kg intragastric): 3.44 ± 1.29 mmol/L
- blood TC, TG and LDL-C (hyperlipidemia hamsters [9]; after treatment, in words): decreased
- rate HDL-C/LDL-C (hyperlipidemia hamsters [9]; after treatment, in words): increased
- weight of rats' retroperitoneal fat (hyperlipidemia rats [10]; hyperlipidemia rats, after administration, in words): obviously decreased
- Fat weight (retroperitoneal fat) (hyperlipidemia rats [10]; 3 mg/kg intragastric): 0.67 ± 0.33 g/100 g body weight
- Fat weight (retroperitoneal fat) (hyperlipidemia rats [10]; 6 mg/kg intragastric): 0.67 ± 0.12 g/100 g body weight
- Fat weight (retroperitoneal fat) (hyperlipidemia rats [10]; 12 mg/kg intragastric): 0.64 ± 0.22 g/100 g body weight
